Values joined by “and” are separate entries in the source; they are usually repeats but may differ in a detail not shown here. Equal values may be shown once. Read-outs that look alike come from different tables or passages of the source.
Experiments:
[1] = Relative bioavailability of capsule versus solution and food effect (10 mg); format: in vivo, human; settings: for Tmax: human, plasma, oral
Method: Screening occurred within 28 days prior to the first administered dose (Day 1) in both single-dose and multiple-dose cohorts. Participants were confined to a clinical research unit from Day -2 until the day after the last dose. Dosing of paltusotine or placebo commenced on Day 1 after baseline studies. Participants fasted overnight for ≥ 10 h prior to each dose administration and remained fasting until 4 h post-dose (after collection of the last GH sample after growth hormone-releasing hormone [GHRH] challenge). For the food effect cohort, the study drug was administered 30 min after a high-fat and high-calorie breakfast. Crinetics Pharmaceuticals, Inc (San Diego, CA) provided the active ingredient, paltusotine (3-[4-(4-Aminopiperidin-1-yl)-3-(3,5-difluorophenyl)quinolin-6-yl]-2-hydroxybenzonitrile hydrochloride; CRN00808), for administration as either an oral solution (prepared on site at the Phase 1 unit) or as capsules (placebo, 5 mg, and 20 mg).
(§1) In the single-dose phase, participants were randomized 6:2 to paltusotine (1.25, 2.5, 5, 10, 20, 40, and 60 mg) or placebo in 7 cohorts (S1 to S7). Cohorts comparing oral bioavailability of solution versus capsules and the effect of a standardized high-fat, high-calorie breakfast on oral bioavailability of the capsule formulation employed the 10 mg dose level. In the multiple-dose phase, participants were randomized 6:3 to once-daily oral paltusotine capsules or placebo at doses of 5 mg for 7 days (M1, Day Last = Day 7), and 10, 20, and 30 mg daily for 10 days (M2, M3, M4, Day Last = Day 10). The initial starting dose of 1.25 mg in the single-dose phase was selected for this study based on nonclinical pharmacologic activity, pharmacokinetics, and safety studies. Subsequent doses were either specified in the protocol or were selected by the safety review committee responsible for the safety oversight of the study.
(§2) For assessing pharmacokinetics of paltusotine, the single-dose pharmacokinetic population included all randomized participants who received any amount of study drug with sufficient plasma concentration data. For the multiple-dose cohorts, only participants who received all doses were included. The relative bioavailability of the capsule formulation was determined by comparing its pharmacokinetic parameters with those of the solution formulation at the 10 mg dose. Food effect was determined at the same dose by comparing pharmacokinetic parameters in the fasting state to those when paltusotine was administered with a high-fat, high-calorie meal. For both formulation and food effect, ANOVA with treatment as a fixed effect and subject as a random effect was performed. Data for peak concentration (Cmax), AUC0-last, and AUC0-inf were natural log-transformed.

[2] = tested on: stimulated-GH and IGF-1 secretion; design: method as in ref 13 = [13]; 13. Betz SF Markison S Kusnetzow AK Athanacio JD Rico-Bautista E Madan A Suppression of growth hormone and insulin-like growth factor 1 in rats after oral administration of CRN00808, a small molecule; settings: cited from earlier work
[3] = Multiple ascending dose plasma pharmacokinetics in healthy volunteers; format: in vivo, human; settings: for Cmax / Tmax / AUC(0-t) / half-life: human, plasma, oral; for AUC(0-t): read-out: AUC0-24
Method: as §1
Single-dose cohorts: Plasma samples were collected on Day 1 (pre-dose, every 15 min up to 90 min post-dose, then at 2, 3, 4, 6, 8, 10, 12, 18, 24, 48, 72, 96, 120, and 144 h post-dose). Multiple-dose cohorts: For the 5 mg cohort, plasma samples were collected on Day 1 (pre-dose, every 15 min up to 90 min post-dose, then at 2, 3, 4, 6, 8, 10, 12, and 18 h post-dose), Days 2–6 (pre-dose and 2 h post-dose), Day 7 (same time points as Day 1, followed by samples at 18, 24, 48, 72, 96, 120, and 144 h post-dose). For all other multiple-dose cohorts, plasma samples were collected on Day 1 (pre-dose, every 15 min up to 90 min post-dose, then at 2, 3, 4, 6, 8, 10, 12, and 18 h post-dose), Days […] (same time points as Day 1, followed by samples at 18, 24, 48, 72, 96, 120, 144, 192, and 240 h post-dose).
Plasma pharmacokinetic sample analysis for paltusotine was determined using validated procedures by CPR Pharma Services (Thebarton, Australia). Briefly, plasma paltusotine concentrations were determined by high-pressure liquid chromatography (HPLC) coupled with tandem mass spectrometry detection (MS/MS). Deuterated paltusotine was used as an internal standard. Supported liquid extraction was used to extract paltusotine and the internal standard. The analyte was separated by HPLC using an ACE C18-AR column (Advanced Chromatography Technologies, Ltd, Aberdeen, Scotland), and the eluates were monitored by an API 4000™ LC–MS/MS System (Sciex, Framingham, MA) in positive multiple reaction monitoring mode. The extract was then assayed against a calibration curve. The data were acquired and integrated by the data acquisition software Analyst® (Sciex), linked directly to the API 4000™ LC–MS/MS System, and then processed using Watson LIMS™ software (Thermo Scientific, Waltham, MA), where applicable. The calibration range was 0.100 to 100 ng/mL using 100 μL of plasma, with a lower limit of quantification of 0.100 ng/mL. The inter-assay accuracy was 94% to 100%, and the inter-assay precision (% CV) was between 6.1% and 15%.
as §2

[4] = design: method as in ref 14 = [14]; 14. Madan A, Juo R, Ferrara-Cook C, Struthers RS, van Marle S, Krasner A (2020) Absorption, metabolism, excretion and absolute oral bioavailability [ 14 C]-CRN00808, an orally bioavailable, nonpeptide; settings: cited from earlier work
[5] = 5 mg, 5 mg capsules once daily, Day 1, mean ± SD
[6] = 5 mg, 5 mg capsules once daily, Day 7, mean ± SD
[7] = 10 mg, 10 mg capsules once daily, Day 1, mean ± SD
[8] = 10 mg, 10 mg capsules once daily, Day 10, mean ± SD
[9] = 20 mg, 20 mg capsules once daily, Day 1, mean ± SD
[10] = 20 mg, 20 mg capsules once daily, Day 10, mean ± SD
[11] = 30 mg, 30 mg capsules once daily, Day 1, mean ± SD
[12] = 30 mg, 30 mg capsules once daily, Day 10, mean ± SD

SMILES: Cl.N#Cc1cccc(-c2ccc3ncc(-c4cc(F)cc(F)c4)c(N4CCC(N)CC4)c3c2)c1O [paltusotine, 3-[4-(4-Aminopiperidin-1-yl)-3-(3,5-difluorophenyl)quinolin-6-yl]-2-hydroxybenzonitrile hydrochloride]
- AUC0-inf geometric mean ratio, high-fat high-calorie meal relative to fasted ([1]; 10 mg capsules): 17%
- Cmax geometric mean ratio, high-fat high-calorie meal relative to fasted ([1]; 10 mg capsules): 14%
- AUC0-inf geometric mean ratio, capsule relative to oral solution ([1]; 10 mg, fasted): 69%
- Cmax geometric mean ratio, capsule relative to oral solution ([1]; 10 mg, fasted): 83%
- decrease in Cmax and AUC0-24 with food ([1]; high-fat, high-calorie meal before 10 mg capsule): more than 7 fold
- Tmax ([1]; 10 mg, 10 mg capsules with high-fat, high-calorie meal): 3 h
- Tmax ([1]; 10 mg, 10 mg capsules, fasted): 2.1 h
- stimulated-GH and IGF-1 secretion in rats [2]: suppresses stimulated-GH and IGF-1 secretion
- Ctrough ([3]; 5 mg capsules once daily, Day 7, mean ± SD): 10.8 ± 5.11 ng/mL
- Ctrough ([3]; 10 mg capsules once daily, Day 10, mean ± SD): 22.2 ng/mL and 22.2 ± 7.38 ng/mL
- Ctrough ([3]; 20 mg capsules once daily, Day 10, mean ± SD): 37.9 ± 11.4 ng/mL
- Ctrough ([3]; 30 mg capsules once daily, Day 10, mean ± SD): 51.1 ± 32.0 ng/mL
- Cmax [3, 5]: 16.8 ± 7.22 ng/mL
- Tmax [3, 5]: 1.2 ± 0.1 h
- AUC(0-t) [3, 5]: 167 ± 73.4 ng·h/mL
- half-life ([3]; 5 mg, 5 mg capsules once daily, Day 7, sampling to 144 h, mean ± SD, read-out: t1/2 (converted)): 34 ± 4.7 h
- Cmax [3, 6]: 35.5 ± 12 ng/mL
- Tmax [3, 6]: 2.1 ± 0.6 h
- AUC(0-t) [3, 6]: 421 ± 163 ng·h/mL
- Cmax [3, 7]: 78.7 ± 45.3 ng/mL
- Tmax [3, 7]: 1.8 ± 0.9 h
- AUC(0-t) [3, 7]: 661 ± 340 ng·h/mL
- half-life ([3]; 10 mg, 10 mg capsules once daily, Day 10, sampling to 240 h, mean ± SD, read-out: t1/2 (converted)): 42 ± 5 h
- Cmax [3, 8]: 75.5 ± 37.4 ng/mL
- Tmax [3, 8]: 3 ± 1.8 h
- AUC(0-t) [3, 8]: 956 ± 371 ng·h/mL
- Cmax [3, 9]: 88.7 ± 43.3 ng/mL
- Tmax [3, 9]: 2.4 ± 0.8 h
- AUC(0-t) [3, 9]: 811 ± 409 ng·h/mL
- half-life ([3]; 20 mg, 20 mg capsules once daily, Day 10, sampling to 240 h, mean ± SD, read-out: t1/2 (converted)): 50 ± 6.6 h
- Cmax [3, 10]: 132 ± 79.2 ng/mL
- Tmax [3, 10]: 1.6 ± 0.4 h
- AUC(0-t) [3, 10]: 1560 ± 733 ng·h/mL
- Cmax [3, 11]: 78.2 ± 60.7 ng/mL
- Tmax [3, 11]: 1.4 ± 0.9 h
- AUC(0-t) [3, 11]: 578 ± 411 ng·h/mL
- half-life ([3]; 30 mg, 30 mg capsules once daily, Day 10, sampling to 240 h, mean ± SD, read-out: t1/2 (converted)): 46 ± 7.4 h
- Cmax [3, 12]: 154 ± 102 ng/mL
- Tmax [3, 12]: 4.5 ± 2.1 h
- AUC(0-t) [3, 12]: 2080 ± 1220 ng·h/mL
- half-life ([3]; conclusion summary, read-out: approximate t1/2): 24 to 48 h
- half-life ([3]; multiple dose 10-30 mg range, sampling to 240 h after last dose, read-out: mean t1/2): 42 to 50 h
- oral bioavailability in animals [4]: high oral bioavailability

Reference: paper PMC8894159, “Paltusotine, a novel oral once-daily nonpeptide SST2 receptor agonist, suppresses GH and IGF-1 in healthy volunteers” (Pituitary, 2022)
